Measured values taken from patent publication US4261989A, “Geldanamycin derivatives and antitumor drug” (Kaken Chemical Co. Ltd., priority 1979, dated 1981).

Tests used:
cancer cell W-2K-11 = assay: Growth inhibition of cancer cell W-2K-11 (percent inhibition of cell multiplication, Table 2); format: cell-based, mouse; conditions: Mus musculus, 48 hours after addition of sample, W-2K-11 cells; for inhibition at 10 µg/mL: concentration 10 μg/ml
Protocol: Cancer cell W-2K-11 was obtained by transforming fibroblast C3H-2K clone derived from kidney of mouse by cancerogenic virus. The cancer cell W-2K-11 was cultured by the following method.
(1) Preparation of culture medium
9.4 Gram of Eagle's MEM culture media (manufactured by Nissui Seiyaku K. K.) was dissolved in 900 ml. of distilled water and the solution was sterilized under high pressure at 120° C. for 15 minutes and cooled. 100 Ml. of calf serum and 3-5 ml. of 10% aqueous solution of sodium bicarbonate were added to the solution to adjust pH to 7.1-7.2. 10 Ml. of an aqueous solution of L-glutamine (2.92 g./100 ml.) filtered by a millipore filter was added just before the use of the solution as culture medium.
(2) Preparation of transplanted cell solution
The cancer cell W-2K-11 stored in a freezer at -80° C. was melted at room temperature and treated by a centrifugal separator at 670 g. for 5 minutes. The precipitated cell was dispersed in 50 ml. of the culture medium (1). The suspension was charged into Roux flask and cultured at 37° C. The multiplication of the cells was initiated and accomplished after 3 to 4 days. The cultured mixture was decanted and 10 ml. of 0.2% trypsin solution was added and the mixture was kept at room temperature for 2 to 3 minutes and the trypsin mixture was decanted and then, 50 ml. of the culture medium (1) was added to prepare a suspension of cells.
(3) Incubation of cells and addition of sample
1.8 Ml. of the suspension of cells (2) was charged into each Petri dish and incubated in a carbon dioxide gas incubator (5% of CO2; 95% of air) at 37° C. Twenty four hours after the initiation of the incubation, 0.2 ml. of each ethanol solution of each sample was added, and the incubation was continued. Forty eight hours after the addition of the sample, numbers of survival cells were counted under a microscopic observation and each percent inhibition of cell multiplication was calculated. [formula]

[1] = Acute toxicity, LD50 to mouse by intraperitoneal injection (Table 3); conditions: in vivo, ip
Protocol: LD50 of each sample to mouse was measured by intraperitoneal injection of each sample.

[2] = read-out: Percent inhibition (%)

| Compound | inhibition at 10 µg/mL (cancer cell W-2K-11; [2]) [%] | LD50 [1] [mg/kg] | inhibition at 1 µg/mL (cancer cell W-2K-11; concentration 1 μg/ml, read-out: Percent inhibition (%)) [%] | inhibition at 1.2 µg/mL (cancer cell W-2K-11; concentration 1.2 μg/ml) [%] |
| --- | --- | --- | --- | --- |
| COC1=C2CC(C)CC(OC)C(O)C(C)C=C(C)C(OC(N)=O)C(OC)C=CC=C(C)C(=O)N(C)C(=CC1=O)C2=O (stereo not shown) [Example 41, 21-N-methyl-Geldanamycin] | 82 | 120 |  |  |
| COC1=C2CC(C)CC(OC)C(O)C(C)C3OC3(C)C(OC(N)=O)C(OC)C=CC=C(C)C(=O)NC(=CC1=O)C2=O (stereo not shown) [Example 45, 8,9-epoxy-Geldanamycin] | 100 | 240 | 95 |  |
| COC1=C2C[C@@H](C)C[C@H](OC)[C@H](O)[C@@H](C)/C=C(\C)[C@H](OC(N)=O)[C@@H](OC)/C=C\C=C(/C)C(=O)NC(=CC1=O)C2=O [Geldanamycin] |  | 15 |  | 61 |
